Assay results as given in patent publication US9073892B2, “Indazolyl triazol derivatives” (Merck Serono S.A., priority 2010, dated 2015).
pIC50: −log10 of the molar value. Structures can show the parent of a compound that is named as a salt.

Key:
[1] = system: IL-6 secretion in human PBMC; assay: IRAK IL-6 secretion functional assay in human PBMC; assay type: cell-based; settings: preincubated 1 h with test article, stimulated with 10 ng/ml IL1, 18-20 h, ELISA
Procedure: IRAK IL-6 Secretion Functional Assay in Human PBMC
Human PBMCs from healthy volunteers were purified from buffy coats of heparinized whole blood by density centrifugation on Ficoll-Hypaque. Isolated PBMCs were washed twice in PBS, counted, and seeded at a density of 7×10^4 cells/well in 180 µl of complete RPMI 1640 medium containing 10% heat-inactivated FBS. PBMC were preincubated for 1 h with serial dilutions of test article dissolved in DMSO (final DMSO concentration 0.33%) at 37° C. in a 5% CO2 incubator. PBMC were then stimulated with 10 ng/ml of IL1-(final volume […]) and incubation was continued for 18-20 h. The supernatants were collected and IL-6 was quantified using the Duo-set ELISA kit (R&D Systems) following manufacturer's instructions

IRAK1/4 human = system: T1, IRAK1/4 human; assay: IRAK1/4 phosphorylation IC50 (enzymatic assay, table 2); assay type: biochemical; settings: human IRAK1/4 phosphorylation
T1 construct: fused on or other part: His tag and TEV cleavage site at the N-terminus
In short: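 In 384-well plates, reactions in 50 mM Hepes pH7.0 buffer with MgCl2, DTT, EGTA and BSA combined ATP, compounds in DMSO at 20 µM to 1 nM, and either His-TEV-tagged human IRAK-1 or His-TEV-tagged human IRAK-4 plus STK1-biotin peptide. They ran for 2 or 3 hours alongside 2% DMSO controls. Each value is an IC50 for inhibition.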

[2] = system: IL1β-induced IL8 release in THP1 cells; assay: IRAK IL8 secretion functional assay; assay type: cell-based; settings: Homo sapiens; THP-1 cells, IL1β 100 ng/ml overnight, IL8 by HTRF; read-out: IC50, Secretion THP-1/IL-β induced IL8 release
Source text: IRAK IL8 Secretion Functional Assay:
THP1 cells are human monocytes derived from acute monocytic leukemia. IL1β receptor expressed on the surface membrane of THP1 cells induced IL8 release. IRAKs are kinase signaling downstream of TLRs and TNF, IL-18, IL-33 and IL-1 receptors.
In cells, IRAK4 is upstream of IRAK1.
The Human IL8 Kit, provided by CysBio International based in Bagnols/Cèze FR, allows for the quantitative determination of IL-8 in cell-culture supernatants.
Anti-cytokine IL8 antibodies are respectively labeled with europium Cryptate and XL665. Upon their binding to IL-8 molecules, the two antibodies come into close proximity, allowing FRET (Fluorescence Resonance Energy Transfer) to occur. This FRET increases proportionally to IL-8 concentrations and be converted in IL8 pg amounts.
THP-1 cells are seeded on Day 1 in 384 well plate with RPMI 1640 at a density of 30 000 cells/well. Compounds 4×/2% DMSO (range of concentrations from 20 μM to 1 nM) and IL1β 4× at 100 ng/ml final are added to cells overnight at 37° C., 5% CO2. Measurement of IL-8 secretion is done by mixing on Day2 10 μl of supernatant with 10 μl of a mix solution of europium Cryptate and XL665 (v:v) as described by supplier.
HTRF (homogeneous time resolved fluorescence) signal is measured after 3 hours incubation time at 30° C. with a BMG Pherastar reader or equivalent.

pIC50 (IRAK1/4 human) | pIC50 [2] | Compound | pIC50 [1]
6.00 to 7.00 |  | O=C(c1ccc(-n2cc(-c3n[nH]c4cc(-c5cccnc5)ccc34)nn2)cc1)N1CCOCC1 [Example 210] | 5.70 to 6.70
6.00 to 7.00 |  | c1ccc2c(-c3cn(-c4ccc(CN5C[C@@H]6C[C@H]5CO6)cc4)nn3)n[nH]c2c1 [Example 145, 3-(1-{4[(1S,4S)-2-oxa-5-azabicyclo[2.2.1]hept-5-ylmethyl]phenyl}-1H-1,2,3-triazol-4-yl)-1H-indazole] | 5.70 to 6.70
 |  | CN(C)C1CCN(C(=O)c2ccc(-n3cc(-c4n[nH]c5ccc(F)cc45)nn3)cc2)CC1 [Example 158] | > 6.70
5.30 to 6.00 | 6.00 to 7.00 | c1cc(CCCN2CCCC2)cc(-n2cc(-c3n[nH]c4ccccc34)nn2)c1 [Example 88, 3-{1-[3-(3-pyrrolidin-1-ylpropyl)phenyl]-1H-1,2,3-triazol-4-yl}-1H-indazole] | 
6.00 to 7.00 | 6.00 to 7.00 | CNCc1ccc(-n2cc(-c3n[nH]c4ccc(C)cc34)nn2)cc1 [Example 8, N-methyl-1-{4-[4-(5-methyl-1H-indazol-3-yl)-1H-1,2,3-triazol-1-yl]phenyl}methanamine] | 
6.00 to 7.00 | 5.30 to 6.00 | O=C(Nc1cnn(C2CCCNCC2)c1)c1ccc(-n2cc(-c3n[nH]c4ccccc34)nn2)cc1 (centres unmarked) [Example 129, N-(1-azepan-4-yl-1H-pyrazol-4-yl)-4-[4-(1H-indazol-3-yl)-1H-1,2,3-triazol-1-yl]benzamide hydrochloride] | 
6.00 to 7.00 | 6.00 to 7.00 | COc1cc(-n2cc(-c3n[nH]c4ccccc34)nn2)ccc1C(=O)N(C)C [Example 25, 4-[4-(1H-indazol-3-yl)-1H-1,2,3-triazol-1-yl]-2-methoxy-N,N-dimethylbenzamide] | 
5.30 to 6.00 | 6.00 to 7.00 | O=C(CCc1ccc(-n2cc(-c3n[nH]c4ccccc34)nn2)cc1)N1CCOCC1 [Example 22, 3-{1-[4-(3-morpholin-4-yl-3-oxopropyl)phenyl]-1H-1,2,3-triazol-4-yl}-1H-indazole] | 
5.30 to 6.00 | 6.00 to 7.00 | O=C(CCc1ccc(-n2cc(-c3n[nH]c4ccccc34)nn2)cc1)N1CCCC1 [Example 23, 3-{1-[4-(3-oxo-3-pyrrolidin-1-ylpropyl)phenyl]-1H-1,2,3-triazol-4-yl}-1H-indazole] | 
6.00 to 7.00 | 6.00 to 7.00 | COCCC1CCCN(C(=O)c2ccc(-n3cc(-c4n[nH]c5ccccc45)nn3)cc2)C1 (centres unmarked) [Example 113] | 
6.00 to 7.00 | 6.00 to 7.00 | COCC1CCN(C(=O)c2ccc(-n3cc(-c4n[nH]c5ccccc45)nn3)cc2)CC1 [Example 37, 3-[1-(4-{[4-(methoxymethyl)piperidin-1-yl]carbonyl}phenyl)-1H-1,2,3-triazol-4-yl]-1H-indazole] | 
> 7.00 | 5.30 to 6.00 | O=C(c1ccc(-n2cc(-c3n[nH]c4ccc(C5CCNCC5)cc34)nn2)cc1)N1CCOCC1 [Example 84, 3-{1-[4-(morpholin-4-ylcarbonyl)phenyl]-1H-1,2,3-triazol-4-yl}-5-piperidin-4-yl-1H-indazole] | 
6.00 to 7.00 | 6.00 to 7.00 | CN1CCC(NC(=O)c2ccc(-n3cc(-c4n[nH]c5ccccc45)nn3)cc2)C1=O (centres unmarked) [Example 31, 4-[4-(1H-indazol-3-yl)-1H-1,2,3-triazol-1-yl]-N-(1-methyl-2-oxopyrrolidin-3-yl)benzamide] | 
6.00 to 7.00 | 5.30 to 6.00 | O=C(NCc1ccco1)c1ccc(-n2cc(-c3n[nH]c4ccccc34)nn2)cc1 [Example 51, N-(2-furylmethyl)-4-[4-(1H-indazol-3-yl)-1H-1,2,3-triazol-1-yl]benzamide] | 
6.00 to 7.00 | 6.00 to 7.00 | O=C(c1ccc(-n2cc(-c3n[nH]c4ccccc34)nn2)cc1)N1CCC(N2CCCC2)CC1 [Example 120, 3-(1-{4-[(4-pyrrolidin-1-ylpiperidin-1-yl)carbonyl]phenyl}-1H-1,2,3-triazol-4-yl)-1H-indazole] | 
6.00 to 7.00 | 6.00 to 7.00 | O=C(c1ccc(-n2cc(-c3n[nH]c4ccccc34)nn2)cc1)N1CCCC(CN2CCOCC2)C1 (centres unmarked) [Example 74] | 
6.00 to 7.00 | 6.00 to 7.00 | O=C(c1ccc(-n2cc(-c3n[nH]c4ccccc34)nn2)cc1)N1CCC(O)CC1 [Example 71, 1-{4-[4(1H-indazol-3-yl)-1H-1,2,3-triazol-1-yl]benzoyl}piperidin-ol] | 
5.30 to 6.00 | 6.00 to 7.00 | c1cc(CCN2CCCC2)cc(-n2cc(-c3n[nH]c4ccccc34)nn2)c1 [Example 83, 3-{1-[3-(2-pyrrolidin-1-ylethyl)phenyl]-1H-1,2,3-triazol-4-yl}-1H-indazole] | 
6.00 to 7.00 | 6.00 to 7.00 | O=C(c1ccc(-n2cc(-c3n[nH]c4ccccc34)nn2)cc1)N1CCC[C@@H](O)C1 [Example 96, (3R)-1-{4-[4-(1H-indazol-3-yl)-1H-1,2,3-triazol-1-yl]benzoyl}piperidin-3-ol] | 
6.00 to 7.00 | 6.00 to 7.00 | Cc1ccc2[nH]nc(-c3cn(-c4ccc(C(=O)N5CCOCC5)cc4)nn3)c2c1 [Example 32, 5-methyl-3-{1-[4-(morpholin-4-ylcarbonyl)phenyl]-1H-1,2,3-triazol-4-yl}-1H-indazole] | 
6.00 to 7.00 | 6.00 to 7.00 | O=C(c1ccc(-n2cc(-c3n[nH]c4ccccc34)nn2)cc1)N1CC(O)C1 [Example 114, 1-{4-[4-(1H-indazol-3-yl)-1H-1,2,3-triazol-1-yl]benzoyl}azetidin-3-ol] | 
> 7.00 | > 7.00 | Cn1cc(-c2ccc3[nH]nc(-c4cn(-c5ccc(C(=O)N6CCOCC6)cc5)nn4)c3c2)cn1 [Example 123, 5-(1-methyl-1H-pyrazol-4-yl)-3-{1-[4-(morpholin-4-ylcarbonyl)phenyl]-1H-1,2,3-triazol-4-yl}-1H-indazole] | 
6.00 to 7.00 | 6.00 to 7.00 | O=C(Cc1ccc(-n2cc(-c3n[nH]c4ccccc34)nn2)cc1)N1CCCC1 [Example 19, 3-{1-[4-(2-oxo-2-pyrrolidin-1-ylethyl)phenyl]-1H-1,2,3-triazol-4-yl}-1H-indazole] | 
6.00 to 7.00 | 6.00 to 7.00 | COCC1CCCN(C(=O)c2ccc(-n3cc(-c4n[nH]c5ccccc45)nn3)cc2)C1 (centres unmarked) [Example 118, 3-[1-(4-{[3-(methoxymethyl)piperidin-1-yl]carbonyl}phenyl)-1H-1,2,3-triazol-4-yl]-1H-indazole] | 
6.00 to 7.00 | 6.00 to 7.00 | COC1CCN(C(=O)c2ccc(-n3cc(-c4n[nH]c5ccccc45)nn3)cc2)CC1 [Example 109, 3-(1-{4-[(4-methoxypiperidin-1-yl)carbonyl]phenyl}-1H-1,2,3-triazol-4-yl)-1H-indazole] | 
6.00 to 7.00 | 6.00 to 7.00 | O=C(c1ccc(-n2cc(-c3n[nH]c4ccccc34)nn2)cc1)N1CCC[C@H](O)C1 [Example 97, (3S)-1-{4-[4-(1H-indazol-3-yl)-1H-1,2,3-triazol-1-yl]benzoyl}piperidin-3-ol] | 
6.00 to 7.00 | 6.00 to 7.00 | Cc1nccn1CC1CCCN(C(=O)c2ccc(-n3cc(-c4n[nH]c5ccccc45)nn3)cc2)C1 (centres unmarked) [Example 115, 3-{1-[4-({3-[(2-methyl-1H-imidazol-1-yl)methyl]piperidin-1-yl}carbonyl)phenyl]-1H-1,2,3-triazol-4-yl}-1H-indazole] | 
6.00 to 7.00 | 6.00 to 7.00 | CCN1CCC[C@H]1CNC(=O)c1ccc(-n2cc(-c3n[nH]c4ccc(C)cc34)nn2)cc1 [Example 4, N-{[(2S)-1-ethylpyrrolidin-2-yl]methyl}-4-[4-(5-methyl-1H-indazol-3-yl)-1H-1,2,3-triazol-1-yl]benzamide] | 
6.00 to 7.00 | 6.00 to 7.00 | O=C(c1ccc(-n2cc(-c3n[nH]c4ccccc34)nn2)cc1)N1CCCCC1CCO (centres unmarked) [Example 117, 2-(1-{4-[4-(1H-indazol-3-yl)-1H-1,2,3-triazol-1-yl]benzoyl}piperidin-2-yl)ethanol] | 

Compound | pIC50 (IRAK1/4 human) | pIC50 [2] | pIC50 [1]
CN1CCN(C(=O)Cc2cccc(-n3cc(-c4n[nH]c5ccccc45)nn3)c2)CC1 [Example 79, 3-(1-{3-[2-(4-methylpiperazin-1-yl)-2-oxoethyl]phenyl}-1H-1,2,3-triazol-4-yl)-1H-indazole] | 5.30 to 6.00 | 5.30 to 6.00 | 
